PMC6442743 (Bioorganic & medicinal chemistry letters, 2018)

Legend:
[1] = molecular target: T1, human sEH (Homo sapiens, UniProt P34913); test: sEH inhibition, kinetic fluorescent assay; type: biochemical
T1 sequence (P34913 1-555): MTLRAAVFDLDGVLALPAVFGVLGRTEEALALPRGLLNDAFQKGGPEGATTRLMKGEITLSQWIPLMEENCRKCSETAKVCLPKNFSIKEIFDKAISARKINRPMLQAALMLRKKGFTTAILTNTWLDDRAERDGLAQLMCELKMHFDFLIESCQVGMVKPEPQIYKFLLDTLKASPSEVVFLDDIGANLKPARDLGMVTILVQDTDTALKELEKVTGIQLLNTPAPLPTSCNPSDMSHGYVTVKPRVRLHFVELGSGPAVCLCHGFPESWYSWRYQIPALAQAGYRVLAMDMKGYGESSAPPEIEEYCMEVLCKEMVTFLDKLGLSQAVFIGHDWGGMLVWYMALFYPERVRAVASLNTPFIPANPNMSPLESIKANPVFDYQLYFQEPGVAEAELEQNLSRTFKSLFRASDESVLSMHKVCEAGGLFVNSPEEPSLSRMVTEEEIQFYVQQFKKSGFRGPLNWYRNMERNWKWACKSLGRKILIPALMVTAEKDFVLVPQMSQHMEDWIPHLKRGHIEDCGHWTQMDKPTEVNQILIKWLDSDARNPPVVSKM

[2] = Water solubility in sodium phosphate buffer; type: physicochemical; settings: for fold more soluble in water than 3a: compared with 3a
[3] = compared with 1a, sodium phosphate buffer pH 7.4, 0.1 M, 1% DMSO

## CC12CC3CC(C)(C1)CC(NC(=S)Nc1ccccc1)(C3)C2 [1a]
[1]; compared with 1b
  fold more potent than 1b: 2 fold
[2]; sodium phosphate buffer pH 7.4, 0.1 M, 1% DMSO
  water solubility (in words): poorly soluble in water

## CCC(CC12CC3CC(CC(C3)C1)C2)NC(=S)Nc1ccccc1 (stereo not drawn) [1c]
[1]; compared with 1a
  fold less potent than 1a: 25 fold

## CC12CC3CC(C)(C1)CC(NC(=S)NCc1ccccc1)(C3)C2 [1d]
[2]; [3]
  fold decrease in water solubility vs. 1a: 4 fold

## CC12CC3CC(C)(C1)CC(NC(=S)Nc1ccc(F)cc1)(C3)C2 [1n]
[2]; [3]
  fold more soluble in water vs. 1a: 4 fold

## S=C(Nc1ccccc1)NC1C2CC3CC(C2)CC1C3 (stereo not drawn) [2a]
[1]; compared with urea analog
  fold less potent than its urea analog: 13 fold

## S=C(NCc1ccccc1)NC1C2CC3CC(C2)CC1C3 (stereo not drawn) [2b]
[1]; compared with 2a
  fold increase of inhibition potency vs. 2a: 6.7 fold

## S=C(NCCc1ccccc1)NC1C2CC3CC(C2)CC1C3 (stereo not drawn) [2c]
[1]; compared with 2b
  fold increase of inhibition potency vs. 2b: 4 fold

## S=C(NC12CC3CC(CC(C3)C1)C2)NC12CC3CC(CC(C3)C1)C2 [3a, di(adamantan-1yl)thiourea]
[2]; compared with corresponding urea, urea data ref 17 for 3a
  fold more water soluble than urea of corresponding structure: 4.7 fold

## S=C(Nc1ccc(C23CC4CC(CC(C4)C2)C3)cc1)Nc1ccc(C23CC4CC(CC(C4)C2)C3)cc1 [3j]
[1]; compared with 3a
  fold decrease in inhibition potency vs. 3a: 1367 fold
[2]
  fold more soluble in water than 3a: 3 fold

## S=C(NC1C2CC3CC(C2)CC1C3)NC12CC3CC(CC(C3)C1)C2 (stereo not drawn) [4a]
[2]
  fold more soluble in water than 3a: 1.8 fold

## S=C(NCCNC(=S)NC12CC3CC(CC(C3)C1)C2)NC12CC3CC(CC(C3)C1)C2 [6a]
[1]; compared with the other dithioureas of series 6
  fold less potent than the rest of thioureas in this series: 10–137 fold

## S=C(NCCCCCCCCCCNC(=S)NC12CC3CC(CC(C3)C1)C2)NC12CC3CC(CC(C3)C1)C2 [6h]
[2]; compared with 6a (1,2-ethylene spacer)
  fold difference in water solubility vs. 6a (decrease): 3 fold

## S=C(NC1C2CC3CC(C2)CC1C3)NC1C2CC3CC(C2)CC1C3 (stereo not drawn) [compound 5]
[2]
  fold more soluble in water than 3a: 1.5 fold
